Measurements published in patent publication US12679877B2, “NPRA agonists, compositions, and uses thereof” (PharmaIn Corporation, priority 2017, dated 2026).
Marks after values point to notes of the source that are not given here. One block for each compound: values may come before it. No end group written: not given here. *: point of attachment. CH3(CH2)22CO = C24 acyl (CH3(CH2)22CO-), CCCCCCCCCCCCCCCCCCCCCCCC(=O)*; Docosanoyl = CCCCCCCCCCCCCCCCCCCCCC(=O)*

What was measured:
[1] = Plasma ANP level by ELISA after s.c. ANP in the same study; assay type: in vivo, Balb/c mice; conditions: ANP 12 mg/Kg s.c., injection at 0 hour and 6 hours; average of all groups with same dose; value (SEM)
Experimental: An investigation was carried out to determine whether prolonged presence of ANP in the blood would have a sustained pharmacodynamic effect, reflected by elevation of cGMP blood concentration, and to determine whether that elevation would be proportional to the level of ANP. The level of blood cGMP relative to ANP was determined. […] This problem had not been documented in literature and there was no reason to solve this previously unknown problem. […] For this study, 4 groups of Balb/c mice (n=3/group; female, 5-6 weeks old; 18-25 g) were used and the cGMP levels at various time points after ANP administration with and without 2nd ANP administration were evaluated. […] Two subsequent s.c. (subcutaneous) administrations of the ANP formulated in a polymeric excipient (to increase in vivo stability) were evaluated. […] The plasma samples were analyzed for cGMP using the cGMP ELISA kit (GE Healthcare Life Sciences, Marlborough, MA) according to manufacturer's protocol. […] The level of ANP associated with cGMP was also measured to further confirm receptor depletion was the result of lack of responsiveness if any. The associated level of ANP was measured using an ELISA assay kit (GE Healthcare Life Sciences, Marlborough, MA) according to manufacturer's protocol. […]

[2] = test system: natriuretic peptide receptors (NPRA or NPRB); assay: 2-point blood cGMP evaluation (2 and 6 hours) after 15 mg/Kg s.c., cGMP Direct Biotrak EIA; assay type: in vivo, CD-1 mice; conditions: for In vivo blood cGMP minus baseline, 2 hour (potency) / In vivo blood cGMP minus baseline, 6 hour (receptor depletion): 15 mg/Kg s.c. in mice (n=3), minus baseline 30 pmol/ml (n=12); for In vivo blood cGMP minus baseline, 2 hour (potency): 2 hours after dosing; for In vivo blood cGMP minus baseline, 6 hour (receptor depletion): 6 hours after dosing; for activity / potency compared to ANP, in words (2 hour data in Table 2): 15 mg/Kg s.c. in mice, blood cGMP
Experimental: Various derivatives of ANP were made and screened for increase in vivo potency while limiting the apparent receptor depletion effects (or perhaps can act on another cGMP enhancing receptors) by looking at the level of blood cGMP at specific time points. […] Various derivatives were made and tested in vivo to determine the level of blood cGMP at 2 hours and 6 hours after subcutaneous administration of 15 mg/Kg in mice (which was allometrically equivalent to human dose of 1.5 mg/Kg) with the goal of finding derivatives that were therapeutically useful for increasing blood cGMP.
For 2-point cGMP evaluation of various derivatives, test samples were dissolved in water (Lonza, Wakersville, MD) before being lyophilized. Prior to use, the lyophilized test sample was dissolved in saline then 15 mg/Kg was injected subcutaneously into female CD-1 mice 6-8 weeks (n=3). Blood samples were collected at 2 and 6 hours with K2EDTA blood collection tube. The collection tube was then centrifuged at 13,000 rpm for 10 minutes at 4° C. to separate plasma. The plasma was analyzed using the cGMP Direct Biotrak EIA (GE Healthcare Life Sciences, Marlborough, MA). Note that by using allometric scaling at exponent of 0.7 [dose in other species=mice dose/((mouse weight/weight of average other species)^0.7)], the 15 mg/Kg in mice is equivalent to about 7.5 mg/Kg rat dose, about 2.5 mg/Kg dog dose, and 1.5 mg/Kg human dose. For the purpose the present disclosure, the 15 mg/Kg in mice as presented in the relevant data examples, should be understood as equivalent to about 7.5 mg/Kg rat dose, which is equivalent to about 2.5 mg/Kg dog dose, which is equivalent to about 1.5 mg/Kg human dose. Because the mice cGMP response to 15 mg/Kg dose of the newly discovered derivatives (see Table 2) was quite high, it would be prudent to use daily doses that are lower than 15 mg/Kg for mice, 7.5 mg/Kg for rat, 2.5 mg/Kg for dog, and 1.5 mg/Kg for human since any higher dose may result in too much increase in cGMP that can result in too much or even dangerous drop in blood pressure unless formulated in a very slow release delivery system. In fact based on cGMP response it was more preferable to use daily doses that are lower than […], 1.5 mg/Kg for rat, 0.5 mg/Kg for dog, and 0.3 mg/Kg for human. Additionally, the level of blood cGMP is preferably between 1.5 to 3-times of the normal baseline level. The blood or plasma cGMP normal baseline level was about 20-50 pmol/ml but could vary slightly depending on the assay kit used to measure the level.

2 hrs. ANP level [1]: 67.24 (6.92)* ng/ml
Compound: CC[C@H](C)[C@@H]1NC(=O)[C@H](CCCNC(=N)N)NC(=O)[C@H](CC(=O)O)NC(=O)[C@H](CCSC)NC(=O)[C@H](CCCNC(=N)N)NC(=O)CNC(=O)CNC(=O)[C@H](Cc2ccccc2)NC(=O)[C@@H](NC(=O)[C@H](CO)NC(=O)[C@H](CO)NC(=O)[C@H](CCCNC(=N)N)NC(=O)[C@H](CCCNC(=N)N)NC(=O)[C@H](CC(C)C)NC(=O)[C@@H](N)CO)CSSC[C@@H](C(=O)N[C@@H](CC(N)=O)C(=O)N[C@@H](CO)C(=O)N[C@@H](Cc2ccccc2)C(=O)N[C@@H](CCCNC(=N)N)C(=O)N[C@@H](Cc2ccc(O)cc2)C(=O)O)NC(=O)CNC(=O)[C@H](CC(C)C)NC(=O)CNC(=O)[C@H](CO)NC(=O)[C@H](CCC(N)=O)NC(=O)[C@H](C)NC(=O)CNC1=O [SEQ ID NO. 1]

Compound: CH3(CH2)20COKKKKGGGSLRRSSCFGGRMDRIGAQSGLGCNSFRY (Docosanoyl-KKKKGGGSLRRSSCFGGRMDRIGAQSGLGCNSFRY; not fully specified (bridges); printed as CH3(CH2)20COKKKKGGGSLRRSSCFGGRMDRIGAQSGLGCNSFRY; cysteine pairing not given here; listed as Homo Sapiens) [SEQ ID NO. 94]
In vivo blood cGMP minus baseline, 2 hour (potency) [2]: 263.8 nM
In vivo blood cGMP minus baseline, 6 hour (receptor depletion) [2]: 255.4 pmol/mL

Compound: CH3(CH2)22COKKKKGGGGLSKGCFGLKLDRIGSMSGLGC ({CH3(CH2)22CO}-KKKKGGGGLSKGCFGLKLDRIGSMSGLGC; not fully specified (bridges); printed as CH3(CH2)22COKKKKGGGGLSKGCFGLKLDRIGSMSGLGC; cysteine pairing not given here; listed as Homo Sapiens) [SEQ ID NO. 122]
In vivo blood cGMP minus baseline, 2 hour (potency) [2]: 251.92 nM
In vivo blood cGMP minus baseline, 6 hour (receptor depletion) [2]: 209.24 pmol/mL

Compound: CH3(CH2)22COKKKKGGGSLRRSSCFGGRMDRIGAQSGLGCNSFRY ({CH3(CH2)22CO}-KKKKGGGSLRRSSCFGGRMDRIGAQSGLGCNSFRY; not fully specified (bridges); printed as CH3(CH2)22COKKKKGGGSLRRSSCFGGRMDRIGAQSGLGCNSFRY; cysteine pairing not given here; listed as Homo Sapiens) [SEQ ID NO. 95]
In vivo blood cGMP minus baseline, 2 hour (potency) [2]: 260.8 nM
In vivo blood cGMP minus baseline, 6 hour (receptor depletion) [2]: 245.6 pmol/mL

Compound: GGGGLSKGCFGLKLDRIGSMSGLGC (listed as Homo Sapiens) [SEQ ID NO. 60]
In vivo blood cGMP minus baseline, 2 hour (potency) [2]: 49.98 nM
In vivo blood cGMP minus baseline, 6 hour (receptor depletion) [2]: 16.85 pmol/mL
activity / potency compared to ANP, in words (2 hour data in Table 2) [2]: no loss activity compared to ANP

Compound: GGGSLRRSSCFGGRMDRIGAQSGLGCNSFRY (listed as Homo Sapiens) [SEQ ID NO. 4]
In vivo blood cGMP minus baseline, 2 hour (potency) [2]: 41.66 nM
In vivo blood cGMP minus baseline, 6 hour (receptor depletion) [2]: -11.79 pmol/mL

Compound: GGLSKGCFGLKLDRIGSMSGLGC (listed as Homo Sapiens) [SEQ ID NO. 58]
In vivo blood cGMP minus baseline, 2 hour (potency) [2]: 27.09 nM
In vivo blood cGMP minus baseline, 6 hour (receptor depletion) [2]: 5.10 pmol/mL
activity / potency compared to ANP, in words (2 hour data in Table 2) [2]: no loss activity compared to ANP

Compound: GGSLRRSSCFGGRMDRIGAQSGLGCNSFRY (listed as Homo Sapiens) [SEQ ID NO. 3]
In vivo blood cGMP minus baseline, 2 hour (potency) [2]: 46.79 nM
In vivo blood cGMP minus baseline, 6 hour (receptor depletion) [2]: 0.16 pmol/mL

Compound: GLSKGCFGLKLDRIGSMSGLGC [SEQ ID NO. 57, reference compound]
In vivo blood cGMP minus baseline, 2 hour (potency) [2]: 93.75 nM
In vivo blood cGMP minus baseline, 6 hour (receptor depletion) [2]: 24.55 pmol/mL

Compound: GSLRRSSCFGGRMDRIGAQSGLGCNSFRY (listed as Homo Sapiens) [SEQ ID NO. 2]
In vivo blood cGMP minus baseline, 2 hour (potency) [2]: 44.08 nM
In vivo blood cGMP minus baseline, 6 hour (receptor depletion) [2]: -13.85 pmol/mL

Compound: KGGGSLRRSSCFGGRMDRIGAQSGLGCNSFRY (listed as Homo Sapiens) [SEQ ID NO. 5]
In vivo blood cGMP minus baseline, 2 hour (potency) [2]: 59.96 nM
In vivo blood cGMP minus baseline, 6 hour (receptor depletion) [2]: 44.34 pmol/mL

Compound: KKGGGSLRRSSCFGGRMDRIGAQSGLGCNSFRY (listed as Homo Sapiens) [SEQ ID NO. 6]
In vivo blood cGMP minus baseline, 2 hour (potency) [2]: 28.6 nM
In vivo blood cGMP minus baseline, 6 hour (receptor depletion) [2]: -4.81 pmol/mL

Compound: KKKGGGSLRRSSCFGGRMDRIGAQSGLGCNSFRY (listed as Homo Sapiens) [SEQ ID NO. 7]
In vivo blood cGMP minus baseline, 2 hour (potency) [2]: 23.40 nM
In vivo blood cGMP minus baseline, 6 hour (receptor depletion) [2]: -1.19 pmol/mL

Compound: KKKKGGGSLRRSSCFGGRMDRIGAQSGLGCNSFRY (listed as Homo Sapiens) [SEQ ID NO. 8]
In vivo blood cGMP minus baseline, 2 hour (potency) [2]: 53.00 nM
In vivo blood cGMP minus baseline, 6 hour (receptor depletion) [2]: 15.25 pmol/mL
